Results published in patent publication US5190870A, “Method for oxidizing hydrocarbons with a hydroxylase from a methane monooxygenase” (Amoco Corporation, priority 1990, dated 1993).

T1: Methylosinus trichosporium OB3b soluble methane monooxygenase, complete system (hydroxylase, component B, reductase) (Methylosinus trichosporium, UniProt P27353)
T1 sequence (P27353 1-526): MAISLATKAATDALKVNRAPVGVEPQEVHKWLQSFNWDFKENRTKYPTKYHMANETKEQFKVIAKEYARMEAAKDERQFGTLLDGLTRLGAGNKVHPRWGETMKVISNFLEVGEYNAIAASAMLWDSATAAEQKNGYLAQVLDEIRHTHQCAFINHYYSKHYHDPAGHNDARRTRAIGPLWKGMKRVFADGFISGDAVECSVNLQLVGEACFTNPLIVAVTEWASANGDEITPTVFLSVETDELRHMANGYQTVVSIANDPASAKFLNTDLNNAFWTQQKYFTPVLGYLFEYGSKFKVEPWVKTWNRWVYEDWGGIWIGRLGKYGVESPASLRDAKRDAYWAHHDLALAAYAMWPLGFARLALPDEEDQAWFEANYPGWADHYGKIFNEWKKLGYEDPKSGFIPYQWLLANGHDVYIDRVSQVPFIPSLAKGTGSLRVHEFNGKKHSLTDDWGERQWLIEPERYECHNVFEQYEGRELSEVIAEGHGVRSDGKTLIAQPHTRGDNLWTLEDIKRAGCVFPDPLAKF
T1 sequence (P27354 1-394 partner): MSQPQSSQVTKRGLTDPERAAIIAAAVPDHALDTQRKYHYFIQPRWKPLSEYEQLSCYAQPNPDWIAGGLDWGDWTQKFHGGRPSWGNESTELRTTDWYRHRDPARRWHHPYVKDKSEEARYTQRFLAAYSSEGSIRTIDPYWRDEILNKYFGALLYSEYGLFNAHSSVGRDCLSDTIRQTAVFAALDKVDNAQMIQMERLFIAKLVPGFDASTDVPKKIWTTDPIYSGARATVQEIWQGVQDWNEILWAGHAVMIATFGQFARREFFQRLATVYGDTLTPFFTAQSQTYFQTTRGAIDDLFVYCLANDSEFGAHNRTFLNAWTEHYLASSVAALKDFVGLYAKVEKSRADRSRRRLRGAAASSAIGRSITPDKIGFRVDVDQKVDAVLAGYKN
T1 sequence (P27355 1-169 partner): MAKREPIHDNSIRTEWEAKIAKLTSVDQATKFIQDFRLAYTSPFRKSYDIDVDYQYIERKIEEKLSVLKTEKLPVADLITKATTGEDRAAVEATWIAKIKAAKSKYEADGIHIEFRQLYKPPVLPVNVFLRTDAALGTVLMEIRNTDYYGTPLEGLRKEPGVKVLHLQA


Tests used:
[1] = biological target: T1, Methylosinus trichosporium OB3b soluble methane monooxygenase, complete system (hydroxylase, component B, reductase); assay: Polarographic / gas chromatographic assay of the complete (reconstituted) methane monooxygenase; conditions: catalytic cycles per second per molecule
Procedure: (§1) Unless explicitly stated, the specific activity values reported for the enzyme components are those observed during the hydroxylation reaction in the presence of optimal concentrations of the other components of the methane monooxygenase. The optimal concentrations were determined by varying the concentration of one component relative to fixed concentrations of the other two components. In routine polarographic assays of methane monooxygenase activity, furan is an acceptable substrate with characteristics which facilitate the assay.

[2] = substrate: c1ccoc1; assay: purified protein, by the assay type; conditions: other: complete methane monooxygenase, polarographic assay; pH 7.0; 30.0 °C
Procedure: as §1

| Molecule | turnover number relative to the hydroxylase [1] | Km [2] |
| --- | --- | --- |
| c1ccoc1 [furan] | 7.6 S^-1 |  |
| Methylosinus trichosporium OB3b soluble methane monooxygenase, complete system (hydroxylase, component B, reductase) (Methylosinus trichosporium) (protein) MAISLATKAATDALKVNRAPVGVEPQEVHKWLQSFNWDFKENRTKYPTKYHMANETKEQFKVIAKEYARMEAAKDERQFGTLLDGLTRLGAGNKVHPRWGETMKVISNFLEVGEYNAIAASAMLWDSATAAEQKNGYLAQVLDEIRHTHQCAFINHYYSKHYHDPAGHNDARRTRAIGPLWKGMKRVFADGFISGDAVECSVNLQLVGEACFTNPLIVAVTEWASANGDEITPTVFLSVETDELRHMANGYQTVVSIANDPASAKFLNTDLNNAFWTQQKYFTPVLGYLFEYGSKFKVEPWVKTWNRWVYEDWGGIWIGRLGKYGVESPASLRDAKRDAYWAHHDLALAAYAMWPLGFARLALPDEEDQAWFEANYPGWADHYGKIFNEWKKLGYEDPKSGFIPYQWLLANGHDVYIDRVSQVPFIPSLAKGTGSLRVHEFNGKKHSLTDDWGERQWLIEPERYECHNVFEQYEGRELSEVIAEGHGVRSDGKTLIAQPHTRGDNLWTLEDIKRAGCVFPDPLAKF |  | 20 µM |
